According to PMC10591846 (Cell reports, 2023):

How the values were obtained:
[1] = system: KLHDC10; test: In vitro peptide binding to KLHDC10; conditions: Figure S12
[2] = molecular target: T1, Pirh2 (Homo sapiens, UniProt Q96PM5); test: In vitro peptide binding to Pirh2; conditions: Figure S12
T1 sequence (Q96PM5 1-261): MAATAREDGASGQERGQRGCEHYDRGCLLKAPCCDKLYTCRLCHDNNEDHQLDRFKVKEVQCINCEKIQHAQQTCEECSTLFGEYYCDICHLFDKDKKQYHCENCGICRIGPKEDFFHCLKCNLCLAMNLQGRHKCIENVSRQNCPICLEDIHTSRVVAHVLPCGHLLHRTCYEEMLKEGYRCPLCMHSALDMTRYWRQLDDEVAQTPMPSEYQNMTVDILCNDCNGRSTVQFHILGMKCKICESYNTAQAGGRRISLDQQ

binding to KLHDC10 in vitro [1]: did not bind
binding to Pirh2 in vitro [2]: did not bind
Sequence: KHKLEQLRNSCA
